Data published in US8853418B2, “Cyclopentylpyrazoles as N-type calcium channel blockers” (Janssen Pharmaceutica NV, priority 2012, dated 2014).
Read-outs that look alike come from different tables or passages of the source.

Assays:
[1] = target: N-type calcium channel (α1B (Cav2.2), β3 and α2δ subunits) (Homo sapiens, UniProt Q00975); test: Functional Assay: Antagonism of N-Type Calcium Channel (FDSS calcium mobilization, KCl depolarization); format: cell-based; settings: for IC50: HEK cell line, 50 mM KCl depolarization, six-point concentration-response, read-out: FDSS IC50
Outline: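 HEK cells stably co-expressing α1B (Cav2.2), β3 and α2δ were loaded with calcium dye, then given compound with fluorescence recorded for 5 min before 50 mM KCl depolarisation and 3 min more reading. IC50 came from six-point curves of maximal fluorescence, normalised to KCl maximum and buffer minimum.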

N-type calcium channel = N-type calcium channel (Homo sapiens, UniProt Q00975); test: Automated Electrophysiology Assay (QPatch-HT whole-cell patch clamp; low- and high-frequency stimulation); format: cell-based
[2] = high-frequency stimulation (15th pulse), read-out: QPatch at High Frequency % Inhibition
[3] = 1 μM, high-frequency stimulation (15th pulse), read-out: QPatch at High Frequency % Inhibition
[4] = low frequency, read-out: QPatch at Low Frequency % Inhibition
[5] = low frequency, 1 μM, read-out: QPatch at Low Frequency % Inhibition

N-type calcium channel, sequence (Q00975 whole entry): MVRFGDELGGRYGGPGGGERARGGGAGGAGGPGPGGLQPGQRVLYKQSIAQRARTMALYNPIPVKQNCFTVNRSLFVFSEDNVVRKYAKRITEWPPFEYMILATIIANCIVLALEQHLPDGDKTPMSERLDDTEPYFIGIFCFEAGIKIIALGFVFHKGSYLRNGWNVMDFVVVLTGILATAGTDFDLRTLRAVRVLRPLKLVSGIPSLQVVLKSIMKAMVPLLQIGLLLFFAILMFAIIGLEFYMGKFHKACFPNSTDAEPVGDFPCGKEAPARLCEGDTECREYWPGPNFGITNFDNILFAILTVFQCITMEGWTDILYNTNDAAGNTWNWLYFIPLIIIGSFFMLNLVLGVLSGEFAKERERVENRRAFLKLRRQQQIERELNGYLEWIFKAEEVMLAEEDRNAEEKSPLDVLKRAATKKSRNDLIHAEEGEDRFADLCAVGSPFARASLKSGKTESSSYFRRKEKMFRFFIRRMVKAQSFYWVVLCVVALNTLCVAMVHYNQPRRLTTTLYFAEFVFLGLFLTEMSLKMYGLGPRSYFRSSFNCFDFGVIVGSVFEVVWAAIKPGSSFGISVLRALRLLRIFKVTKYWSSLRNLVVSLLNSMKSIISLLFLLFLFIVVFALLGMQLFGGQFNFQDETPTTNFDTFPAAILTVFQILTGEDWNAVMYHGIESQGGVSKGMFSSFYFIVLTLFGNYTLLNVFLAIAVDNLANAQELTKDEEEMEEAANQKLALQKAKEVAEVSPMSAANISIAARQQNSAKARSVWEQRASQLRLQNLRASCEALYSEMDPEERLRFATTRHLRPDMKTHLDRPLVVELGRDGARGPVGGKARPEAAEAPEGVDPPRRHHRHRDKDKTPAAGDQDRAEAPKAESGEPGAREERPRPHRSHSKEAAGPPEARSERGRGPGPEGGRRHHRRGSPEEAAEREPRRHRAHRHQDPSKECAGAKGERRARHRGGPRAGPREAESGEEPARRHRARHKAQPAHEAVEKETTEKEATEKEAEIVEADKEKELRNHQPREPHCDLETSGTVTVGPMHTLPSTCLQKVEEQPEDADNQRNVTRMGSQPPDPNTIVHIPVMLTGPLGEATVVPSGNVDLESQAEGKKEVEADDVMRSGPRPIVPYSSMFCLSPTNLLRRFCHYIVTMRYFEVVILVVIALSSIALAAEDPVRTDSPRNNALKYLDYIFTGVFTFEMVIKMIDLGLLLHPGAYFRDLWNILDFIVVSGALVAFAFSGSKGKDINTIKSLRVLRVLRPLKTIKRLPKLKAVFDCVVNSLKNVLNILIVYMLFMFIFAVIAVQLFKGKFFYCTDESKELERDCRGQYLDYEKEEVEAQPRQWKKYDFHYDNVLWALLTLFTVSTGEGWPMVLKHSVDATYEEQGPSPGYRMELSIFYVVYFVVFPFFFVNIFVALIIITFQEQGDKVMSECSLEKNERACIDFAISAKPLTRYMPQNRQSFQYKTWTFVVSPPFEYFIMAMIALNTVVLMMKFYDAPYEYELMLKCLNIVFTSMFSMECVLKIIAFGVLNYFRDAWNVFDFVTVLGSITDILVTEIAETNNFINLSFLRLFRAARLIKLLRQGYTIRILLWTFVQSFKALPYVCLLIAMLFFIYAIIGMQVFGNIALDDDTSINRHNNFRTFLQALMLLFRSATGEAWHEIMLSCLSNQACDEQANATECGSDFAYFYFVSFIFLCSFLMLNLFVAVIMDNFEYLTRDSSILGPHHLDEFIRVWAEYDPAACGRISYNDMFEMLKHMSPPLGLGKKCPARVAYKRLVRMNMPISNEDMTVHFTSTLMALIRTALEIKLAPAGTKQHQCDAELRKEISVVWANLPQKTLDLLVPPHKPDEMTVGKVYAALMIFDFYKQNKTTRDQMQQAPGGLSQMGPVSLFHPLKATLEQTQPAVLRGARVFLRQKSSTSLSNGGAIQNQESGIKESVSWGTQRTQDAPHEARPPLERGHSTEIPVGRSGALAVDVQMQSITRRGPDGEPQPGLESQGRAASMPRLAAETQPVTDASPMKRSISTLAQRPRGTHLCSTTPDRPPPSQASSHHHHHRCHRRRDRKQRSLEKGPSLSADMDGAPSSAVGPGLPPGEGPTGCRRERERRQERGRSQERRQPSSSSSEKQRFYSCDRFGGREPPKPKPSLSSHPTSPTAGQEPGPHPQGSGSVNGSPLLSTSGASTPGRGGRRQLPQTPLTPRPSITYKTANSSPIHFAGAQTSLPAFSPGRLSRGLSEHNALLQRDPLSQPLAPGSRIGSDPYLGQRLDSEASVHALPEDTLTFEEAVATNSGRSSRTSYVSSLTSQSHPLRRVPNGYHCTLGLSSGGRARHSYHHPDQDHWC
N-type calcium channel, sequence (P54284 whole entry partner): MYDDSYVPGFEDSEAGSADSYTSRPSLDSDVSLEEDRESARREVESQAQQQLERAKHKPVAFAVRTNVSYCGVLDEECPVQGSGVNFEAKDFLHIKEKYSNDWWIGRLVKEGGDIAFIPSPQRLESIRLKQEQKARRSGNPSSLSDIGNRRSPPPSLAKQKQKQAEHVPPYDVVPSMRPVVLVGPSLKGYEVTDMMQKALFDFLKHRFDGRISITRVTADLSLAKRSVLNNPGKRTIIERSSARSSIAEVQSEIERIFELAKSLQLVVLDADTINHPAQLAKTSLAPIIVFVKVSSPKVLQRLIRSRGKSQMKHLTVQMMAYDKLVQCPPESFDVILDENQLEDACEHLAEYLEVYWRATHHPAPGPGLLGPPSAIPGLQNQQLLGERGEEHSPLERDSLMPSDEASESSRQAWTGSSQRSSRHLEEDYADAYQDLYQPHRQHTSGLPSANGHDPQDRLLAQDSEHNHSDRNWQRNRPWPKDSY
N-type calcium channel, sequence (P54289 25-946 partner limits assumed): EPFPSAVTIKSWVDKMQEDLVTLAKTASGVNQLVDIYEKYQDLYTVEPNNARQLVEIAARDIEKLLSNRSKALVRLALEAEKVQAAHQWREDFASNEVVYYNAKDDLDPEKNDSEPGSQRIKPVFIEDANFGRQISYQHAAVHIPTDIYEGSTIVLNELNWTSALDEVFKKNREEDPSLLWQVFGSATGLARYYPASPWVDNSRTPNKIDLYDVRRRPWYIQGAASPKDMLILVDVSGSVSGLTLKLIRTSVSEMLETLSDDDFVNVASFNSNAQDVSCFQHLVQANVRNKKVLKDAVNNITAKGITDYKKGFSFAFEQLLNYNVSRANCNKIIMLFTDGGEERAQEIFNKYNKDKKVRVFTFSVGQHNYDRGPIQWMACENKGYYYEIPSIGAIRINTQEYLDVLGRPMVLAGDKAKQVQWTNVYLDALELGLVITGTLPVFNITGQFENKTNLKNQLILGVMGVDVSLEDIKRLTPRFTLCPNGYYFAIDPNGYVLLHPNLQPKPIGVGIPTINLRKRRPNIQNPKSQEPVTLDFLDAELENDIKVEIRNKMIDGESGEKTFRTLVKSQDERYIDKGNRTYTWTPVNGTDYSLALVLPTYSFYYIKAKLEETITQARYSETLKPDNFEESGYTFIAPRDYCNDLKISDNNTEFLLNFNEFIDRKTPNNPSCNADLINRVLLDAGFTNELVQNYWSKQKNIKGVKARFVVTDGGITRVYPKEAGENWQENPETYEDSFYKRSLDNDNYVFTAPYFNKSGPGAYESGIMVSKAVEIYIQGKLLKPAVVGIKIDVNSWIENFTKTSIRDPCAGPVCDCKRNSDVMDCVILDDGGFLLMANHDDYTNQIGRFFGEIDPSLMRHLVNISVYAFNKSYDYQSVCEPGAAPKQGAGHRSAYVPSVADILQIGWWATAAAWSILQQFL
N-type calcium channel, sequence (P54289 947-1103 partner limits assumed): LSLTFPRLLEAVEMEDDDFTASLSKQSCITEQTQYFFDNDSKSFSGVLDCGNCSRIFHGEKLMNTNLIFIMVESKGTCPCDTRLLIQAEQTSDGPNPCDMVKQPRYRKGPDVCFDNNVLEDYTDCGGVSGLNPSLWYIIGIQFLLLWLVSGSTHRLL
N-type calcium channel (α1B (Cav2.2), β3 and α2δ subunits), sequence (Q00975 whole entry): as the sequence (Q00975 whole entry) above
N-type calcium channel (α1B (Cav2.2), β3 and α2δ subunits), sequence (P54284 whole entry partner): as the sequence (P54284 whole entry partner) above
N-type calcium channel (α1B (Cav2.2), β3 and α2δ subunits), sequence (P54289 25-946 partner limits assumed): as the sequence (P54289 25-946 partner limits assumed) above
N-type calcium channel (α1B (Cav2.2), β3 and α2δ subunits), sequence (P54289 947-1103 partner limits assumed): as the sequence (P54289 947-1103 partner limits assumed) above

inhibition at 0.33 µM ([1]; 0.33 μM) [%]	IC50 [1] [nM]	inhibition at 0.1 µM (N-type calcium channel; [2]) [%]	inhibition at 1 µM (N-type calcium channel; [3]) [%]	inhibition at 0.1 µM (N-type calcium channel; [4]) [%]	inhibition at 1 µM (N-type calcium channel; [5]) [%]	inhibition at 0.01 µM (N-type calcium channel; [2]) [%]	inhibition at 0.01 µM (N-type calcium channel; [4]) [%]	% Inhibition (%) at 0.33 μM ([1]; 0.33 μM) [%]	QPatch at High Frequency % Inhibition (N-type calcium channel; 1 μM, high-frequency stimulation (15th pulse)) [%]	QPatch at Low Frequency % Inhibition (N-type calcium channel; low frequency, 1 μM) [%]	Structure (SMILES)
89	19	39	61	28	40	20	19				COc1ccccc1-n1nc2c(c1-c1ccc(C#N)cc1)CC1(C2)OCC(C)(C)CO1 [Compound 91, 4-[2-(2-methoxyphenyl)-5′,5′-dimethyl-2,6-dihydro-4H-spiro[cyclopenta[c]pyrazole-5,2′-[1,3]dioxan]-3-yl]benzonitrile]
91	12	30		12							COc1ccccc1-n1nc2c(c1-c1ccc(N(C)C)cc1)CC1(C2)OCC(C)(C)CO1 [Compound 93, 4-[2-(2-methoxyphenyl)-5′,5′-dimethyl-2,6-dihydro-4H-spiro[cyclopenta[c]pyrazole-5,2′-[1,3]dioxan]-3-yl]-N,N-dimethylaniline]
81	34	20		-1							COc1ccc(-c2c3c(nn2-c2ccccc2OC)CC2(C3)OCC(C)(C)CO2)cn1 [Compound 96, 2-(2-methoxyphenyl)-3-(6-methoxypyridin-3-yl)-5′,5′-dimethyl-2,6-dihydro-4H-spiro[cyclopenta[c]pyrazole-5,2′-[1,3]dioxane]]
88	29	33		27							COc1ccccc1-n1nc2c(c1-c1ccc(N(C)C)nc1)CC1(C2)OCC(C)(C)CO1 [Compound 97, 5-[2-(2-methoxyphenyl)-5′,5′-dimethyl-2,6-dihydro-4H-spiro[cyclopenta[c]pyrazole-5,2′-[1,3]dioxan]-3-yl]-N,N-dimethylpyridin-2-amine]
92	3	33		34							COc1ccccc1-n1nc2c(c1-c1ccc(N(C)C)cc1)CC1(C2)OC(C)(C)C(C)(C)O1 [Compound 107, 4-[2-(2-methoxyphenyl)-4′,4′,5′,5′-tetramethyl-2,6-dihydro-4H-spiro[cyclopenta[c]pyrazole-5,2′-[1,3]dioxolan]-3-yl]-N,N-dimethylaniline]
86	10	13		3							CCOc1ccc(-c2c3c(nn2-c2ccccc2OC)CC2(C3)OC(C)(C)C(C)(C)O2)cn1 [Compound 108, 3-(6-ethoxypyridin-3-yl)-2-(2-methoxyphenyl)-4′,4′,5′,5′-tetramethyl-2,6-dihydro-4H-spiro[cyclopenta[c]pyrazole-5,2′-[1,3]dioxolane]]
84	19	9		8							COc1ccccc1-n1nc2c(c1-c1ccc(C)nc1)CC1(C2)OC(C)(C)C(C)(C)O1 [Compound 109, 2-(2-methoxyphenyl)-4′,4′,5′,5′-tetramethyl-3-(6-methylpyridin-3-yl)-2,6-dihydro-4H-spiro[cyclopenta[c]pyrazole-5,2′-[1,3]dioxolane]]
90	2.8	1		-9							COc1ccccc1-n1nc2c(c1-c1ccc(N(C)C)nc1)CC1(C2)OC(C)(C)C(C)(C)O1 [Compound 110, 5-[2-(2-methoxyphenyl)-4′,4′,5′,5′-tetramethyl-2,6-dihydro-4H-spiro[cyclopenta[c]pyrazole-5,2′-[1,3]dioxolan]-3-yl]-N,N-dimethylpyridin-2-amine]

The next lines start with the molecule.

Structure (SMILES)	inhibition at 0.33 µM ([1]; 0.33 μM) [%]	IC50 [1] [nM]	inhibition at 0.1 µM (N-type calcium channel; [2]) [%]	inhibition at 1 µM (N-type calcium channel; [3]) [%]	inhibition at 0.1 µM (N-type calcium channel; [4]) [%]	inhibition at 1 µM (N-type calcium channel; [5]) [%]	inhibition at 0.01 µM (N-type calcium channel; [2]) [%]	inhibition at 0.01 µM (N-type calcium channel; [4]) [%]	% Inhibition (%) at 0.33 μM ([1]; 0.33 μM) [%]	QPatch at High Frequency % Inhibition (N-type calcium channel; 1 μM, high-frequency stimulation (15th pulse)) [%]	QPatch at Low Frequency % Inhibition (N-type calcium channel; low frequency, 1 μM) [%]
COc1ccccc1-n1nc2c(c1-c1ccc(Cl)cc1)C[C@H](OC(=O)C1CCC1)C2 [Compound 80, (5S)-3-(4-chlorophenyl)-2-(2-methoxyphenyl)-2,4,5,6-tetrahydrocyclopenta[c]pyrazol-5-yl cyclobutanecarboxylate]	89	31	22	43	7	6					
COc1ccccc1-n1nc2c(c1-c1ccc(Cl)cc1)C[C@H](OC(=O)C(C)C)C2 [Compound 81, (5S)-3-(4-chlorophenyl)-2-(2-methoxyphenyl)-2,4,5,6-tetrahydrocyclopenta[c]pyrazol-5-yl 2-methylpropanoate]	86	48	12		-4						
COc1ccccc1-n1nc2c(c1-c1ccc(Cl)cc1)C[C@H](OCC(C)C)C2 [Compound 85, (5S)-3-(4-chlorophenyl)-2-(2-methoxyphenyl)-5-(2-methylpropoxy)-2,4,5,6-tetrahydrocyclopenta[c]pyrazole]	94	23	2		-5						
COc1ccccc1-n1nc2c(c1-c1ccc(Cl)cc1)C[C@H](OC1CCCCC1)C2 [Compound 88, (5S)-3-(4-chlorophenyl)-5-(cyclohexyloxy)-2-(2-methoxyphenyl)-2,4,5,6-tetrahydrocyclopenta[c]pyrazole]	83	43	33		22						
COc1ccccc1-n1nc2c(c1-c1ccc(Cl)cc1)C[C@H](O[C@H]1C[C@@H]3CC[C@H]1C3)C2 [Compound 89, (5S)-5-[(1S,2S,4R)-bicyclo[2.2.1]hept-2-yloxy]-3-(4-chlorophenyl)-2-(2-methoxyphenyl)-2,4,5,6-tetrahydrocyclopenta[c]pyrazole]	85	49	26		6						
COc1ccccc1-n1nc2c(c1-c1ccc(Cl)cc1)C[C@H](OC1CCCC1)C2 [Compound 90, (5S)-3-(4-chlorophenyl)-5-(cyclopentyloxy)-2-(2-methoxyphenyl)-2,4,5,6-tetrahydrocyclopenta[c]pyrazole]	89	22	21		10						
COc1ccccc1-n1nc2c(c1-c1ccc(Cl)cc1)CC1(C2)O[C@H](C)[C@@H](C)O1 [Compound 98, (4′R,5′R)-3-(4-chlorophenyl)-2-(2-methoxyphenyl)-4′,5′-dimethyl-2,6-dihydro-4H-spiro[cyclopenta[c]pyrazole-5,2′-[1,3]dioxolane]]	102	5.9	28		-6						
COc1ccccc1-n1nc2c(c1-c1ccc(Cl)cc1)CC1(C2)O[C@@H](C)[C@H](C)O1 [Compound 99, (4′S,5′S)-3-(4-chlorophenyl)-2-(2-methoxyphenyl)-4′,5′-dimethyl-2,6-dihydro-4H-spiro[cyclopenta[c]pyrazole-5,2′-[1,3]dioxolane]]	93	13	34		-4						
COc1ccccc1-n1nc2c(c1-c1ccc(Cl)cc1)CC1(C2)O[C@H](C)C[C@@H](C)O1 (stereo partly drawn) [Compound 100, (4′R,6′R)-3-(4-chlorophenyl)-2-(2-methoxyphenyl)-4′,6′-dimethyl-2,6-dihydro-4H-spiro[cyclopenta[c]pyrazole-5,2′-[1,3]dioxane]]	101	4.4	69	83	46	72	21	10			
COc1ccccc1-n1nc2c(c1-c1ccc(Cl)cc1)CC1(C2)O[C@@H](C)C[C@H](C)O1 (stereo partly drawn) [Compound 101, (4′S,6′S)-3-(4-chlorophenyl)-2-(2-methoxyphenyl)-4′,6′-dimethyl-2,6-dihydro-4H-spiro[cyclopenta[c]pyrazole-5,2′-[1,3]dioxane]]	98	27	40		3						
COc1ccccc1-n1nc2c(c1-c1ccc(Cl)cc1)CC1(C2)O[C@@H](C)[C@@H](C)O1 (stereo partly drawn) [Compound 102, (4′R,5′S)-3-(4-chlorophenyl)-2-(2-methoxyphenyl)-4′,5′-dimethyl-2,6-dihydro-4H-spiro[cyclopenta[c]pyrazole-5,2′-[1,3]dioxolane]]	97	7.6		58		42					
COc1ccccc1-n1nc2c(c1-c1ccc(Cl)cc1)CC1(C2)O[C@@H](C)[C@@H](C)O1 (stereo partly drawn) [Compound 103, (4′R,5′S)-3-(4-chlorophenyl)-2-(2-methoxyphenyl)-4′,5′-dimethyl-2,6-dihydro-4H-spiro[cyclopenta[c]pyrazole-5,2′-[1,3]dioxolane]]		4.8	46		12			-21	101	69	36
COc1ccccc1-n1nc2c(c1-c1ccc(C#N)cc1)CC(CC(C)C)C2 (stereo not drawn) [Compound 105, 4-[2-(2-methoxyphenyl)-5-(2-methylpropyl)-2,4,5,6-tetrahydrocyclopenta[c]pyrazol-3-yl]benzonitrile]	81	46	20	40	-1	10					
